In patent US11479551B2, “MTA-cooperative PRMT5 inhibitors” (Mirati Therapeutics, Inc., priority 2019, dated 2022) one finds IC50 data, which are given here for 16 compounds.

Where two headings read alike, the source gives them in different places.

The test system of one test is HCT116 parental cells. Kind of test: Proliferation assay (CellTiter-Glo, 10 days of treatment), HCT116 parental. Format: cell-based. The method, then:
(§1) Control samples were analyzed in parallel.
Briefly, on Day 0, 250 HCT116 parental or HCT116 homozygous MTAP knockout cell were seeded in 96 well plates in McCoy's 5A supplemented with 10% fetal bovine serum and pen/strep and the cells were incubated overnight at 37° C. plus 5% CO2.
The following day, cells were treated with DMSO vehicle control or a dose response of PRMT5 inhibitors and incubated at 37 C plus 5% CO2 for five days. On Day 6, the cells were trypsinized and split 1:10 into new 96-well plates with fresh medium containing the same concentration of PRMT5 inhibitor and incubated for an additional 5 days at 37° C. plus 5% CO^2.
On Day 11, the viability of the cells was measured using a CTG assay kit (CellTiter-Glo; Promega cat.no G7573) in accordance with the manufacturer's instructions. The IC50 values for each compound after 10 days of treatment were calculated using GraphPad PRISM software.
Background: Cellular ATP, detected with luciferase, serves as a proxy for viable cell number.

In test [1] the test system is HCT116 homozygous MTAP knockout cells. The test can be described thus: Proliferation assay (CellTiter-Glo, 10 days of treatment), HCT116 MTAP knockout. It is filed as cell-based. The note with it: read-out: Proliferation HCT116MTAP_KO IC50. A digest of the protocol: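 Cells (250/well) seeded in McCoy's 5A with 10% FBS, then treated the next day with a PRMT5 inhibitor dose response at 37 °C, 5% CO2. On day 6 they were split 1:10 into fresh medium with the same compound concentration. CellTiter-Glo viability was read on day 11 and IC50 taken after 10 days of treatment.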

The test system of test [2] is PRMT5-dependent Symmetric Di-methyl Arginine signal in HCT116 parental cells. Kind of test: SYM11 In-Cell Western, HCT116 parental. It is filed as cell-based. As to conditions: 4 days of treatment, SYM11/DRAQ5 ratio. The method, then:
as §1
Briefly, on Day 0, 2,000 HCT116 parental or HCT116 homozygous MTAP knockout cells were seeded in 96 well plates in McCoy's 5A supplemented with 10% fetal bovine serum and pen/strep and the cells were incubated overnight at 37° C. plus 5% CO2. The following day, cells were treated with DMSO vehicle control or a dose response of PRMT5 inhibitors, and incubated at 37° C. plus 5% CO^2 for four days.
After 4 days of treatment, the cells were fixed by adding 50 μl of 4% paraformaldehyde solution to each well and the cells were incubated for 20 min at room temperature. The paraformaldehyde solution was removed, 150 μl of ice-cold methanol was added and the plate was placed −20° C. for 10 minutes. The methanol was removed, 150 μl of Odyssey Blocking buffer+0.05% Tween20 was added and the plate was incubated at room temperature with shaking for one hour.
The primary SYM11 antibody solution was removed by aspiration and the wells were washed three consecutive times with phosphate buffered saline containing 0.1% Tween-20 (PBST).
The secondary antibody solution was removed by aspiration and the wells were washed three consecutive times with PB ST.
The SYM11 signal and the DRAQ5 signal were quantified using a Li-Cor Odyssey machine reading at […], respectively. The SYM11/DRAQ5 ratio was used to calculate the inhibition of Symmetric Dimethyl Arginine as percent of DMSO control.

The subject of test [3] is PRMT5-dependent Symmetric Di-methyl Arginine signal in HCT116 homozygous MTAP knockout cells. The test can be described thus: SYM11 In-Cell Western, HCT116 MTAP knockout. Format: cell-based.
Test [4] concerns the target T1, PRMT5/MEP50 complex (Homo sapiens (Human), UniProt O14744). The test can be described thus: PRMT5:MEP50 HotSpot Assay (full-length histone H2A substrate, plus and minus MTA). It is filed as biochemical. As to conditions: in the presence of 2 μM MTA. An outline of the steps:
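Radiometric filter-binding format using recombinant full-length histone H2A as substrate. After the reaction was stopped, mixtures went onto filter paper and tritiated H2A was quantified by scintillation counting.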

The target in test [5] is T1, PRMT5/MEP50 complex. Kind of test: PRMT5:MEP50 FlashPlate Assay (histone H4 peptide substrate, plus and minus MTA). It is filed as biochemical. The method, then: The PRMT5 inhibitory activity of compounds of the present invention was determined using either a PRMT5:MEP50 FlashPlate Assay (Reaction Biology Corporation) or a PRMT5:MEP50 HotSpot Assay (Reaction Biology Corporation).
1. PRMT5:MEP50 FlashPlate Assay

[6] abbreviates: Homo sapiens, HCT-116, 96 h, HCT116 homozygous MTAP knockout cells, 4 days of treatment, SYM11/DRAQ5 ratio, read-out: In-cell-Western (SYM11) HCT116 MTAP_KO IC50.
Where [7] appears, read: HCT116 homozygous MTAP knockout cells, 4 days of treatment, SYM11/DRAQ5 ratio, read-out: In-cell-Western (SYM11) HCT116 MTAP_KO IC50.

T1 sequence (O14744 2-637): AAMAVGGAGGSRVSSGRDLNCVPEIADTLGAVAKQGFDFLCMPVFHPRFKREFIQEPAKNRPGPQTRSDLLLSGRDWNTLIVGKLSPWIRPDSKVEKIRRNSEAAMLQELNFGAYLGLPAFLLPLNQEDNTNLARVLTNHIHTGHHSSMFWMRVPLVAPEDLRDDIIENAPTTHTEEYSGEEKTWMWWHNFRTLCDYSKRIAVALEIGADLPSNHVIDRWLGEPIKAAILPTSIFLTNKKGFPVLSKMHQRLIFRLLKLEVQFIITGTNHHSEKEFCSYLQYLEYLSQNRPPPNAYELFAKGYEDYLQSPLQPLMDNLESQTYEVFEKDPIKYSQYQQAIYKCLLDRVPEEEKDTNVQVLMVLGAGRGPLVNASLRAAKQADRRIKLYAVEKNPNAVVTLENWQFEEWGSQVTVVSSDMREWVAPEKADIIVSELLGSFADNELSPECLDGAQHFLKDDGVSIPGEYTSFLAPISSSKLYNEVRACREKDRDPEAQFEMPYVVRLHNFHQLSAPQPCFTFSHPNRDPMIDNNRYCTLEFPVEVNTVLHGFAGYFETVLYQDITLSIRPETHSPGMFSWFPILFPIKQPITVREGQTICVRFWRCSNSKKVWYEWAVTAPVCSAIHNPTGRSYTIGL
T1 sequence (Q9BQA1 2-342 partner): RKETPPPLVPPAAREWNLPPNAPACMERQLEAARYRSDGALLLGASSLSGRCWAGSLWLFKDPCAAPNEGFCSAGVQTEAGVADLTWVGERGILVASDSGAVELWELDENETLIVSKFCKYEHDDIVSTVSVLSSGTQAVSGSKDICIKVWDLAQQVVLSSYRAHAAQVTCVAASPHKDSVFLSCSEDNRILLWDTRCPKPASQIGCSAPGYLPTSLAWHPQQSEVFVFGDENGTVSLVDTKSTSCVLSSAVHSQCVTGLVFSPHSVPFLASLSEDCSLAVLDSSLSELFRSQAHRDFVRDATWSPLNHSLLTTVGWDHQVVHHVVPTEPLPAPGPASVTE

In the case of `CCc1cc(-c2cnn(C)c2-c2ccc3ccccc3c2C#N)cc2c(CN)n[nH]c(=O)c12` [Example 15-1, 2-[4-[4-(aminomethyl)-8-ethyl-1-oxo-2H-phthalazin-6-yl]-2-methyl-pyrazol-3-yl]naphthalene-1-carbonitrile], the IC50 in the test on HCT116 parental cells (Homo sapiens, HCT-116, 240 h) is 1560 nM; in test [1] (Homo sapiens, HCT-116, 240 h) it was 51 nM; in test [2] (Homo sapiens, HCT-116, 96 h) it was greater than 1000 nM; in test [3] (setting [6]), 22 nM.

On to `CC(N)c1n[nH]c(=O)c2ccc(-c3cnn(C)c3-c3ccc4ccccc4c3C#N)cc12` (single isomer, unassigned) [Example 9-5, 2-[4-[4-(1-aminoethyl)-1-oxo-2H-phthalazin-6-yl]-2-methyl-pyrazol-3-yl]naphthalene-1-carbonitrile], for which the IC50 was 6440 nM in the test on HCT116 parental cells (Homo sapiens, HCT-116, 240 h); 125 nM in test [1]; greater than 1000 nM in test [2] (Homo sapiens, HCT-116, 96 h); 42 nM in test [3] (setting [7]).

Turning to `Cn1ncc(-c2ccc3c(=O)[nH]nc(CN)c3c2)c1-c1c(F)c(Cl)cc(OC2CC2)c1C#N` [Example 4-230, 2-(4-(4-(aminomethyl)-1-oxo-1,2-dihydrophthalazin-6-yl)-1-methyl-1H-pyrazol-5-yl)-4-chloro-6-cyclopropoxy-3-fluorobenzonitrile], the IC50 in the test on HCT116 parental cells (Homo sapiens, HCT-116, 240 h) was 1890 nM; in test [2] (Homo sapiens, HCT-116, 96 h), greater than 1000 nM; in test [3] (Homo sapiens, HCT-116, 96 h, read-out: In-cell-Western (SYM11) HCT116 MTAP_KO IC50, HCT116 homozygous MTAP knockout cells, 4 days of treatment, SYM11/DRAQ5 ratio), 6 nM.

On to `Cn1ncc(-c2ccc3c(=O)[nH]nc(CN)c3c2)c1-c1cc(C(F)(F)F)cc(OC2CC2)c1C#N` [Example 4-209, 2-(4-(4-(aminomethyl)-1-oxo-1,2-dihydrophthalazin-6-yl)-1-methyl-1H-pyrazol-5-yl)-6-cyclopropoxy-4-(trifluoromethyl)benzonitrile], for which the IC50 with HCT116 parental cells (Homo sapiens, HCT-116, 240 h) was 4670 nM; in test [1] (Homo sapiens, HCT-116, 240 h), 59 nM; in test [2] (Homo sapiens, HCT-116, 96 h), greater than 1000 nM; in test [3] (setting [6]), 10 nM.

As for `Cn1ncc(-c2ccc3c(=O)[nH]nc(CN)c3c2)c1-c1ccc2c(F)cccc2c1C#N` [Example 4-223, 2-(4-(4-(aminomethyl)-1-oxo-1,2-dihydrophthalazin-6-yl)-1-methyl-1H-pyrazol-5-yl)-5-fluoro-1-naphthonitrile], the IC50 came out at 7810 nM in the test with HCT116 parental cells (Homo sapiens, HCT-116, 240 h); 75 nM in test [1] (Homo sapiens, HCT-116, 240 h); 756 nM in test [2] (Homo sapiens, HCT-116, 96 h); 12 nM in test [3] (setting [6]).

On to `Cn1ncc(-c2ccc3c(=O)[nH]nc(CN)c3c2)c1-c1cc2ccccc2c(OC2CC2)c1C#N` [Example 4-231, 3-(4-(4-(aminomethyl)-1-oxo-1,2-dihydrophthalazin-6-yl)-1-methyl-1H-pyrazol-5-yl)-1-cyclopropoxy-2-naphthonitrile], for which the IC50 is 3120 nM in the test on HCT116 parental cells (Homo sapiens, HCT-116, 240 h); 50 nM in test [1] (Homo sapiens, HCT-116, 240 h); greater than 1000 nM in test [2] (Homo sapiens, HCT-116, 96 h); 37 nM in test [3] (setting [6]).

Regarding `Cn1ncc(-c2ccc3c(=O)[nH]nc(CN)c3c2)c1-c1c(F)cc2ccccc2c1C#N` [Example 4-203, 2-(4-(4-(aminomethyl)-1-oxo-1,2-dihydrophthalazin-6-yl)-1-methyl-1H-pyrazol-5-yl)-3-fluoro-1-naphthonitrile], the IC50 turned out to be 1210 nM in the test with HCT116 parental cells (Homo sapiens, HCT-116, 240 h); 19 nM in test [1] (Homo sapiens, HCT-116, 240 h); 903 nM in test [2] (Homo sapiens, HCT-116, 96 h); 2 nM in test [3] (setting [6]).

On to `CCOc1cccc(-c2c(-c3cc(C)c4c(=O)[nH]nc(CN)c4c3)cnn2C)c1C#N` [Example 10-9, 2-(4-(4-(aminomethyl)-8-methyl-1-oxo-1,2-dihydrophthalazin-6-yl)-1-methyl-1H-pyrazol-5-yl)-6-ethoxybenzonitrile], for which the IC50 on PRMT5/MEP50 complex [4] (IC50 + 2 μM MTA) came out at 1930 nM; in the test on HCT116 parental cells (Homo sapiens, HCT-116, 240 h), 9820 nM; in test [1] (Homo sapiens, HCT-116, 240 h) it was 489 nM; in test [3] (setting [6]), 8 nM.

For `Cn1ncc(-c2ccc3c(=O)[nH]nc(CN)c3c2)c1-c1c(F)cc2ccccc2c1C#N` (single isomer, unassigned) [Example 16-1], the IC50 came to 38 nM on PRMT5/MEP50 complex [4] (read-out: IC50 + 2 μM MTA), 757 nM with HCT116 parental cells, 316 nM in test [2] and 2 nM in test [3] (setting [7]).

As for `Cn1ncc(-c2ccc3c(=O)[nH]nc(CN)c3c2)c1-c1c(Cl)cc2ccccc2c1C#N` [Example 4-215, 2-(4-(4-(aminomethyl)-1-oxo-1,2-dihydrophthalazin-6-yl)-1-methyl-1H-pyrazol-5-yl)-3-chloro-1-naphthonitrile], the IC50 with HCT116 parental cells (Homo sapiens, HCT-116, 240 h) was 3540 nM; in test [1] (Homo sapiens, HCT-116, 240 h), 81 nM; in test [2] (Homo sapiens, HCT-116, 96 h) it was greater than 1000 nM; in test [3] (setting [6]), 34 nM.

On to `Cc1cc(-c2c(-c3ccc4c(=O)[nH]nc(CN)c4c3)cnn2C)c(C#N)c2ccccc12` [Example 12-10, 2-(4-(4-(aminomethyl)-1-oxo-1,2-dihydrophthalazin-6-yl)-1-methyl-1H-pyrazol-5-yl)-4-methyl-1-naphthonitrile], for which the IC50 in the test with HCT116 parental cells (Homo sapiens, HCT-116, 240 h) was 1330 nM; in test [1] (Homo sapiens, HCT-116, 240 h) it was 38 nM; in test [2] (Homo sapiens, HCT-116, 96 h), greater than 1000 nM; in test [3] (setting [6]), 3 nM.

As to `Cn1ncc(-c2cc(Cl)c3c(=O)[nH]nc(CN)c3c2)c1-c1cc(Cl)cc(OC2CC2)c1C#N` [Example 10-16, 2-(4-(4-(aminomethyl)-8-chloro-1-oxo-1,2-dihydrophthalazin-6-yl)-1-methyl-1H-pyrazol-5-yl)-4-chloro-6-cyclopropoxybenzonitrile], the IC50 was found to be 1760 nM in the test with HCT116 parental cells (Homo sapiens, HCT-116, 240 h); 86 nM in test [1] (Homo sapiens, HCT-116, 240 h); 86 nM in test [2] (Homo sapiens, HCT-116, 96 h); 48 nM in test [3] (setting [6]).

Take `Cc1cc(OC2CC2)c(C#N)c(-c2c(-c3ccc4c(=O)[nH]nc(CN)c4c3)cnn2C)c1F` [Example 4-241, 2-(4-(4-(aminomethyl)-1-oxo-1,2-dihydrophthalazin-6-yl)-1-methyl-1H-pyrazol-5-yl)-6-cyclopropoxy-3-fluoro-4-methylbenzonitrile]: the IC50 is 2400 nM with HCT116 parental cells (Homo sapiens, HCT-116, 240 h); 51 nM in test [1] (Homo sapiens, HCT-116, 240 h); greater than 1000 nM in test [2] (Homo sapiens, HCT-116, 96 h); 14 nM in test [3] (setting [6]).

As to `CCc1c(Cl)ccc(-c2c(-c3ccc4c(=O)[nH]nc(CN)c4c3)cnn2C)c1C#N` [Example 4-199, 6-(4-(4-(aminomethyl)-1-oxo-1,2-dihydrophthalazin-6-yl)-1-methyl-1H-pyrazol-5-yl)-3-chloro-2-ethylbenzonitrile], the IC50 came out at 276 nM at PRMT5/MEP50 complex [4] (IC50 + 2 μM MTA); 8850 nM with HCT116 parental cells (Homo sapiens, HCT-116, 240 h); 120 nM in test [1] (Homo sapiens, HCT-116, 240 h); 2 nM in test [3] (setting [6]).

For the compound `CCc1c(OC)ccc(-c2c(-c3ccc4c(=O)[nH]nc(CN)c4c3)cnn2C)c1C#N` [Example 4-201, 2-(4-(4-(aminomethyl)-1-oxo-1,2-dihydrophthalazin-6-yl)-1-methyl-1H-pyrazol-5-yl)-6-ethyl-5-methoxybenzonitrile], the IC50 at PRMT5/MEP50 complex [4] (IC50 + 2 μM MTA) was 948 nM; in the test with HCT116 parental cells (Homo sapiens, HCT-116, 240 h) it was greater than 10000 nM; in test [1] (Homo sapiens, HCT-116, 240 h), 155 nM; in test [3] (setting [6]) it was 16 nM.

Consider `COc1ccc(C#N)c(-c2c(-c3ccc4c(=O)[nH]nc(CN)c4c3)cnn2C)c1` [Example 4-104, 2-(4-(4-(aminomethyl)-1-oxo-1,2-dihydrophthalazin-6-yl)-1-methyl-1H-pyrazol-5-yl)-4-methoxybenzonitrile], for which the IC50 at PRMT5/MEP50 complex [5] (IC50 + 2 μM MTA (nM), in the presence of 2 μM MTA) is 0.5 nM; on PRMT5/MEP50 complex [5] (in the absence of MTA, read-out: IC50), 28 nM; at PRMT5/MEP50 complex [4] (IC50 + 2 μM MTA) it was 794 nM; in test [1] (Homo sapiens, HCT-116, 240 h), 5320 nM; in test [2] (Homo sapiens, HCT-116, 96 h), 3330 nM; in test [3] (setting [6]) it was 391 nM.
